Data set [1] deals with COX-2. Briefly: COX-2 expression in rat inflammatory exudate cells (carrageenan air pouch). The format is in vivo. The following applies: oral 3-30 mg/kg, 6 h. How it is done: Lewis rats (175-200 g) were used in this study. Rats were randomly distributed in groups of 5 animals. An, air pouch was produced by subcutaneous injection of 20 ml of sterile air into the intrascapular area of animals in each group. Every two days, 10 ml of air were injected again into the cavity to keep the space open. Seven days after the first injection of air, 2 ml of a 1% carrageenan solution was injected into the air pouch in all groups to produce an inflammatory reaction. Test compound was administered orally 30 min before carrageenan administration. The animals were killed 6 h later and the volume of exudate was measured. The type and number of cells present were determined using standard Wright-Giemsa staining and a Coulter Counter cell counter, respectively. The exudate was centrifuged at 400 g at 4° C. for 7 min and PGE2 concentration was determined by enzyme-immunoassay (Amershan-Biotrak RPN222). The cell pellet was resuspended in 2 ml cold 0.85% NaCl. To eliminate red cell contamination, cells were subjected to a selective cellular lysis by the addition of 6 ml cold water for 20 seconds. The isotonicity of the cellular suspension was restored by the addition of 2 ml 3.5% NaCl. […]

In data set [2] the test system is NF-κB. Put plainly: NF-κB activation in brain cells of post-natal Long Evans black-hooded rats (NMDA lesion). The format is in vivo, rat. As for the experimental part: This study was carried out using post-natal (P9) Long Evans black-hooded rats. Each group consisted of 6 animals subjected to an experimental lesion, plus two control animals of the same age. The experimental lesion was induced by intracortical injection (sensorimotor area) of N-methyl-D-aspartate (NMDA), which causes a marked local neuronal degeneration. Triflusal (30 mg/kg) was administered orally in three doses (from day 7 to 9) every 24 hours. Glial reactivity was induced by NMDA injection at postnatal day 9, one hour after the last triflusal dose. At different times (2-24 h) after this last dose, animals were killed, brains were extracted and cut in a cryostat and sections were processed using immunocytochemical and histochemical techniques to determine NF-κB activation in microglia and astroglia using double staining: NF-κB-lectin and NF-κB-GFPA. In parallel, slices were cut on a vibratome to determine the degree of microglial and astroglial reactivity by histoenzymatic techniques (B. Castellano et al., J.Histochem. Cytochem., 1991, 39(5), 561-568).

Data set [3] concerns MCP-1. Briefly: MCP-1 expression induced by immune complexes in THP-1 cells (ELISA). The format is cell-based, human. The following applies: 100 μg/ml A-IgG. As for the experimental part: Human monocytic THP-1 cells (3×10^6 cells/well) were cultured in plastic dishes in RPMI 1640 culture medium supplemented with penicillin (100 U/ml), streptomycin (100 μg/ml), gentamycin (50 μg/ml), glutamine (2 mM) and 2% heat-inactivated fetal calf serum. Cells were cultured in the presence of HTB (2 and 4 mM) or vehicle and were activated with 100 μg/ml immune complex aggregates (A-IgG). The production of soluble MCP-1 was determined by ELISA using a commercially available kit (R&D Systems Inc.; Minneapolis, Minn.). The detection limit of the system was 5 pg/ml.

Data set [4] in a line: Cell viability of 143.98.2 cells (EZ4U). The format is cell-based. The following applies: human, read-out: Percentage of cell viability. How it is done: Several cell lines obtained from the American Type Culture Collection (ATCC) were cultured at 37° C. and under a 5% CO2 atmosphere. Each cell line was grown in an appropriate culture medium and within the exponential phase (Table I).
For the cell viability studies 24-well plates were used, where 0.5×10^6 cells/ml (for 24-hour studies), 0.25×10^6 cells/ml (for 48-hour studies) or 0.125×10^6 cells/ml (for 72-hour studies) were incubated. Next, different concentrations of HTB (1-3 mM) were added and cells were incubated for different time periods (37° C., 5% CO2). After incubation, the supernatant from each well was extracted, and cells were washed with culture medium without fetal calf serum. Then, the supernatant was extracted and 200 μl culture medium without fetal calf serum were added to each well. In addition, 20 μl substrate were added to determine cell viability. This method is based on the ability of viable cells to transform the colourless substrate into a coloured substance that is excreted to the supernatant (EZ4U, Biomedica Gmbh.). After incubating cells for 1 hour at 37° C. and 5% CO2, 200 μl supernatant were collected and the absorbance was measured at 450 nm.
The absorbance was also determined at 620 nm as a measure of the existing non-specific value.

As usually defined, the viability is the share of living cells, or the viability signal relative to a control.

`CC(=O)Oc1cc(C(F)(F)F)ccc1C(=O)O` [triflusal, 2-Acetyloxy-4-trifluoromethylbenzoic acid, reference compound]: the “inhibition of COX-2 expression in the cells present in the exudate” value in data set [1] is recorded as “dose-dependently inhibits”. For the same compound, the “NF-κB activation in astroglial and microglial cells after NMDA excitotoxic lesion” value in data set [2] (30 mg/kg p.o. pretreatment) is on record as “completely inhibited”. The “basal (constitutive) NF-κB activation in cortical neurons of control animals” value in data set [2] (triflusal 30 mg/kg orally, three doses every 24 hours) is “inhibited”.
Turning to `O=C(O)c1ccc(C(F)(F)F)cc1O` [HTB, 2-hydroxy-4-trifluoromethylbenzoic acid], the “inhibition of MCP-1 expression induced by immune complexes” value in data set [3] (2 mM) and in data set [3] (4 mM) was “complete inhibition” each time. In addition, the viability at 0 h, 1 mM in data set [4] (143.98.2 cells (osteosarcoma), 1 mM HTB, 0 hours) turned out to be 100%. The viability at 2 h, 1 mM in data set [4] (143.98.2 cells (osteosarcoma), 1 mM HTB, 2 hours) was 100%. In data set [4] (143.98.2 cells (osteosarcoma), 1 mM HTB, 5 hours), the viability at 5 h, 1 mM amounted to 100%. Further, the viability at 24 h, 1 mM in data set [4] (143.98.2 cells (osteosarcoma), 1 mM HTB, 24 hours) was found to be 93.9%. In data set [4] (143.98.2 cells (osteosarcoma), 1 mM HTB, 48 hours), the viability at 48 h, 1 mM was determined as 83.2%. Also, in data set [4] (143.98.2 cells (osteosarcoma), 1 mM HTB, 72 hours), the viability at 72 h, 1 mM is 50.4%. In addition, in data set [4] (143.98.2 cells (osteosarcoma), 3 mM HTB, 0 hours), the viability at 0 h, 3 mM is 100%. In addition, in data set [4] (143.98.2 osteosarcoma cells, 3 mM HTB, 2 hours), the viability at 2 h, 3 mM amounted to 98.1%. The viability at 5 h, 3 mM in data set [4] (143.98.2 osteosarcoma cells, 3 mM HTB, 5 hours) came to 82.7%. In addition, in data set [4] (143.98.2 osteosarcoma cells, 3 mM HTB, 24 hours), the viability at 24 h, 3 mM was found to be 52.2%. Also, the viability at 48 h, 3 mM in data set [4] (143.98.2 osteosarcoma cells, 3 mM HTB, 48 hours) turned out to be 16.1%.

These data come from patent US6509377B1, “Use of a 2-hydroxy-4-trifluoromethylbenzoic acid derivatives as inhibitors of the activation of the nuclear transcription factor NF-κB” (J. Uriach & Cia, S.A., priority 1999, dated 2003).
